The values below are quoted from earlier work in patent US20110042247A1 (priority 2009, published 2011).

The structures appear in SMILES notation. Read-outs that look alike come from different tables or passages of the source.

For the molecule `Nc1ncn([C@H]2C[C@H](O)[C@@H](CO)O2)c(=O)n1` [Decitabine, 4-amino-1-(2-deoxy-β-D-erythro-pentofuranosyl)-1,3,5-triazin-2(1H)-one], the Solubility result by setting is: (dimethylsulphoxide (DMSO)) “soluble”; (ethanol and water (50:50)) “slightly soluble”; (methanol) “slightly soluble”; (methanol/water (50/50)) “slightly soluble”; (water) “sparingly soluble”.
With `Nc1ncn([C@@H]2O[C@H](CO)[C@@H](O)[C@H]2O)c(=O)n1` [Azacitidine, 4-amino-1-β-D-ribofuranosyl-1,3,5-triazin-2(1H)-one], the Solubility result runs as follows: (5% Tween 80 in water) “sparingly soluble”; (5% dextrose in water) “sparingly soluble”; (N-methylpyrrolidone) “sparingly soluble”; (acetone) “insoluble”; (dimethylsulphoxide (DMSO)) “soluble”; (ethanol) “insoluble”. In addition, the Solubility entry (ethanol and water (50:50)) is reported as “slightly soluble”; the Solubility result (methyl ethyl ketone) is on record as “insoluble”; the Solubility result (normal saline) is reported as “sparingly soluble”; the Solubility result (polyethylene glycol) is listed as “slightly soluble”; the Solubility result (propylene glycol) is given as “slightly soluble”; the Solubility entry (water) is “sparingly soluble”. For the same molecule, the Solubility result (water saturated octanol) is listed as “sparingly soluble”.
